Laboratory results as given in patent US20250082611A1, “DOSING REGIMEN FOR AN NLRP3 INHIBITOR IN THE TREATMENT OF OSTEOARTHRITIS” (Novartis AG, priority 2021, published 2025).

System: IL-1β production in PMA-differentiated THP-1 cells
Test: IL-1β production in PMA-differentiated THP-1 cells stimulated with gramicidin (hTHP-1 assay, 2% fetal bovine serum)
Assay type: cell-based
Conditions: Homo sapiens, hTHP-1 assay containing 2% fetal bovine serum
Procedure: THP-1 cells were purchased from the American Type Culture Collection and sub-cultured according to instructions from the supplier. Cells were cultured in complete RPMI 1640 (containing 10% heat inactivated FBS, penicillin (100 units/ml) and streptomycin (100 μg/ml)), and maintained in log phase prior to experimental setup. Prior to the experiment, compounds were dissolved in dimethyl sulfoxide (DMSO) to generate a 30 mM stock. The compound stock was first pre-diluted in DMSO to 3, 0.34, 0.042 and 0.0083 mM intermediate concentrations and subsequently spotted using Echo550 liquid handler into an empty 384-well assay plate to achieve desired final concentration (e.g. 100, 33, 11, 3.7, 1.2, 0.41, 0.14, 0.046, 0.015, 0.0051, 0.0017 μM). DMSO was backfilled in the plate to achieve a final DMSO assay concentration of 0.37%. The plate was then sealed and stored at room temperature until required.
THP-1 cells were treated with PMA (Phorbol 12-myristate 13-acetate) (20 ng/ml) for 16-18 hours. On the day of the experiment the media was removed and adherent cells were detached with trypsin for 5 minutes. Cells were then harvested, washed with complete RPMI 1640, spun down, and resuspended in RPMI 1640 (containing 2% heat inactivated FBS, penicillin (100 units/ml) and streptomycin (100 μg/ml). The cells were plated in the 384-well assay plate containing the spotted compounds at a density of 50,000 cells/well (final assay volume 50 μl). Cells were incubated with compounds for 1 hour and then stimulated with gramicidin (5 μM) (Enzo) for 2 hours. Plates were then centrifuged at 340 g for 5 min. Cell free supernatant (40 μL) was collected using a 96-channel PlateMaster (Gilson) and the production of IL-1β was evaluated by HTRF (cisbio). The plates were incubated for 18 h at 4° C. and read using the preset HTRF program (donor emission at 620 nm, acceptor emission at 668 nm) of the SpectraMax i3x spectrophotometer (Molecular Devices, software SoftMax 6). A vehicle only control and a dose titration of CRID3 (100-0.0017 μM) were run concurrently with each experiment. […]

CC(C)(O)c1ncc(S(N)(=O)=NC(=O)Nc2c3c(cc4c2CCC4)CCC3)s1 (centres unmarked) [Compound I, N′-(1,2,3,5,6,7-hexahydro-s-indacen-4-ylcarbamoyl)-2-(2-hydroxypropan-2-yl) thiazole-5-sulfonimidamide]
IC50: 40 to 200 nM

CC(C)(O)c1ncc([S@@](N)(=O)=NC(=O)Nc2c3c(cc4c2CCC4)CCC3)s1 [Compound IB, (S)-N′-((1,2,3,5,6,7-hexahydro-s-indacen-4-yl)carbamoyl)-2-(2-hydroxypropan-2-yl) thiazole-5-sulfonimidamide]
IC50: 200 to 1000 nM
